In patent US6632794B1, “Insulin-like growth factor agonist molecules” (Genentech, Inc., priority 1997, dated 2003):
Positions of bridges follow the written chain, without caps; N, C: chain ends. Residues, ends and D or L forms follow the SMILES beside them. No end group written: not given here.

Legend:
IGFBP-3 [1] = molecular target: T1, IGFBP-3 (Homo sapiens, UniProt P17936); experiment: BIAcore competition assay, IGFBP-3 binding to immobilized IGF-I; conditions: 40 nM IGFBP-3; 400 to 800 RU immobilized IGF-I; read-out: BIAcore Assay IC50, inhibition of IGF-I binding to IGFBP-3
T1 sequence (P17936 28-291): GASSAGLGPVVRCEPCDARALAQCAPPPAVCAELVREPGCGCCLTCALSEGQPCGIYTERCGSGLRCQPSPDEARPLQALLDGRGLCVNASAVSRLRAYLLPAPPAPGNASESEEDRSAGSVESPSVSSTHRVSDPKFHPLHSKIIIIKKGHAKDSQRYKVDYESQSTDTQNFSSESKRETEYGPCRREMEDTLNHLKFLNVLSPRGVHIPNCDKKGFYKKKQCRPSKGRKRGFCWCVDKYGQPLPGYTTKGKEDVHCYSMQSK
Procedure: A. BIAcore™ Competition Assay (for IGFBP-3 Binders)
IGF-I was immobilized on a dextran chip for inhibition assays using a BIAcore™ 2000 surface-plasmon-resonance device (BIAcore, Inc., Piscataway, N.J.) to measure free binding protein. […] Serial dilutions of peptide were mixed with a constant concentration (40 nM) of IGFBP-3. After incubation for >1 hour at room temperature, an aliquot of 20 μL was injected at a flow rate of 20 μL/min over the IGF-I chip. Following the injection, a response reading was taken to measure the relative amount of IGFBP-3 bound to the IGF-I.

IGFBP-3 [2] = molecular target: T1, IGFBP-3; experiment: BIAcore competition assay, IGFBP-3 binding to immobilized IGF-II; conditions: 20 nM IGFBP-3; approximately 1500 RU immobilized IGF-II; read-out: IC50, inhibition of IGFBP-3 binding to IGF-II (BIAcore)
Procedure: D. BIAcore™ Competition Assay (for IGFBP-3 Binders)
IGF-II was immobilized on a dextran chip for inhibition assays using a BIAcore™ 2000 surface-plasmon-resonance device (BIAcore, Inc., Piscataway, N.J.) to measure free binding protein. IGF-II was biotinylated as described above, and injected over a chip to which streptavidin had been coupled (BIAcore, Inc.) to give approximately 1500 RU of immobilized IGF-II. […] Serial dilutions of peptide were mixed with a constant concentration (20 nM) of IGFBP-3. After incubation for ≧1 hour at room temperature, an aliquot of 20 μl was injected at a flow rate of 20 μl/min over the IGF-II chip. Following the injection, a response reading was taken to measure the relative amount of IGFBP-3 bound to the IGF-II.

IGFBP-1 [3] = molecular target: T2, IGFBP-1 (Homo sapiens, UniProt P08833); experiment: BIAcore competition assay, IGFBP-1 binding to IGF-I; conditions: for IGF-I Inhibition IC50 (114)/IC50 (mut) / IGF-I Inhibition IC50 (116)/IC50 (mut): g3 bp1-01 selectants by BIAcore, higher = better; for IGF-I Inhibition IC50 (114)/IC50 (mut): relative to bp1-14; for IGF-I Inhibition IC50 (116)/IC50 (mut): relative to bp1-16
T2 construct: biotin (chemical label, EZ-LINK NHS-SS-Biotin)
T2 sequence (P08833 26-259): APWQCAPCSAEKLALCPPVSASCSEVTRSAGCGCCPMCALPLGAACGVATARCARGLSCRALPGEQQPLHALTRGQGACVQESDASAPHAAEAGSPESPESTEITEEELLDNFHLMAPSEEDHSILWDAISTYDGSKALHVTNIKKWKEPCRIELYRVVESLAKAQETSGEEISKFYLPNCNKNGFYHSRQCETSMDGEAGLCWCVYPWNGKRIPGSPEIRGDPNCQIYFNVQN
Procedure: Two series of synthetic peptide variants were generated to determine which side chains of the bp1-01 peptide might contribute directly to binding IGFBP-1. In the first series an alanine-scanning approach (Cunningham and Wells, Science, 244: 1081-1085 (1989)) was used to remove that portion of each side chain beyond the beta carbon. The contribution of these atoms to the free energy of binding of the peptide to IGFBP-1 was then assessed by measuring the potency (IC50) of the variant for inhibiting IGFBP-1 binding to IGF-I or IGF-II in a BIAcore™competition assay, analogous to that described for IGFBP-3 (see Example 7).
(§1) Substitutions at the N-terminus or C-terminus yielded affinity improvements. […] All of these peptides had similar or improved apparent affinity for IGFBP-1 as compared with bp1-01 and bp1-02 and are thus expected to increase the availability of IGF-I in an in vitro cell culture assay.

IGFBP-1 [4] = molecular target: T2, IGFBP-1; experiment: Biotin-BP plate (ELISA) assay, biotinylated IGFBP-1 binding to IGF-I; conditions: C-terminal bp1-01 variants by ELISA
Procedure: 1. Biotin-BP Assay (for IGFBP-1 Binders)
For inhibition of IGFBP-1 binding, IGFBP-1 (as well as IGFBP-3 as a control) were biotinylated as described above. MAXISORP™plates were coated and blocked as described above, using 2 μg/mL IGF-I. In a separate plate, serial dilutions of peptide were premixed with a constant concentration (20 nM) of biotinylated IGFBP-1. After 20 min. at room temperature, the mixture was added to the IGF-I plate. The peptide/IGFBP mix was then removed and the plate was washed ten times with PBS buffer containing 0.05% TWEEN-20™ surfactant. Bound biotin-IGFBP-1 was then detected using streptavidin-conjugated horse radish peroxidase, and a chromogenic substrate.
A second series of peptides made use of non-natural amino acids to probe whether other structural features such as an added methyl group at the alpha carbon, or an isomer (D-alanine) could affect peptide binding to IGFBP-1.
as §1

dwarf rats = experiment: Long-term administration to GH-deficient dwarf (dw/dw) rats; assay type: in vivo, rat
From the text: Young female dwarf rats (11-12 wk of age, 115-140 g) were bred by homozygous mating (Charles Rivers Laboratories) and delivered to the Genentech Animal House where they were housed five per cage on polystyrene chips and fed a standard animal chow and water ad libitum, and kept in a room of constant humidity and with controlled temperature and lighting. The animals were weighed, and based on uniformity of body weight, 37 of the animals were selected and randomized into treatment groups and cages to give six treatment groups of equal initial body weights (approximately 120 g).
The study consisted of six groups of rats with six or seven rats per group.
The mutant (Leu^24,Ala^31)hIGF-I and native sequence recombinant human IGF-I were administered by osmotic minipumps (ALZET 2001™, Alza, Palo Alto, Calif.) which were placed in a subcutaneous tunnel in the dorsal neck region while the rats were anesthetized with KETAMINE/XYLAZINE™ anesthesia. The pumps were filled with solutions so that the calculated daily dose was 120 μg per rat per day (1 mg/kg/day), assuming that the pump delivered as per the manufacturer's description (24 μl of solution per day).
Recombinant human GH (50 μg/day) was administered for eight days by twice daily sc injection, with each injection being of 25 μg in a volume of 100 μl.
Body weights were measured daily in the morning. After 8 days the animals were anesthetized using CO2 and exsanguinated by cardiac puncture. The remaining blood was allowed to clot and serum was separated and stored for further analysis.
(§2) Spleen, thymus, heart, liver, kidney, and perirenal fat were removed and weighed. The tibia was removed and fixed in neutral buffered formalin for histological measurement of epiphyseal plate width.
Serum chemistries were measured using a TECHNICON CHEM I PLUS™ analyzer. Serum insulin concentration was measured using an RIA kit supplied by Linco, Inc. To measure the IGF-I concentrations the serum was extracted using acid ethanol and the supernatant diluted to neutrality and assayed for IGF-I by RIA. The concentration of rat IGF-I in serum extract was measured by RIA using a kit from Diagnostic Systems Laboratories, Inc. Human IGF-I concentration was measured by RIA at Genentech, Inc.
Tibia were sectioned longitudinally, stained with TOLULENE BLUE™ stain and mounted on microscope slides. The tibial epiphyseal plate width was measured using an ocular micrometer attached to a microscope.
Data were analyzed statistically by analysis of variance using one-factor ANOVA followed by Duncan's Range Test.

hypophysectomized rats = experiment: Long-term administration to hypophysectomized rats; assay type: in vivo, rat; conditions: one week
From the text: Young female SD rats were hypophysectomized at Taconic Laboratories and delivered several days later. The rats were then weighed frequently and those whose weight increased or decreased by more than 7 grams between 2 and 3 weeks following hypophysectomy were excluded from the study. Twenty-five rats were grouped randomly into five groups based on their body weight, and then randomly assigned to cages, with four rats per cage. The animals were allowed ad libitum access to food and water and housed in a room controlled for temperature and lighting.
1) Excipient pump, excipient injections;
2) (Leu^24,Ala^31)hIGF-I (10 μg/day, by SC minipump), excipient injections;
3) (Leu^24,Ala^31)hIGF-I (50 μg/day, by SC minipump), excipient injections;
4) Recombinant human GH (NUTROPIN™ brand from Genentech, Inc., 20 μg/day, by SC injection, two injections each of 10 μg/day), excipient minipump; or
5) (Leu^24,Ala^31)hIGF-I (50 μg/day, by SC minipump) plus recombinant human GH (20 μg/day, by SC injection, two injections each of 10 μg/day).
The rats were dosed for one week.
The mutant (Leu^24,Ala^31)hIGF-I was administered by osmotic minipumps (ALZET 2001™, Alza, Palo Alto, Calif.), which were placed in a subcutaneous tunnel in the dorsal neck region of the rats while they were anesthetized with KETAMINE™/XYLAZINE™ anesthesia. The pumps were filled with solutions so that the calculated daily dose was 50 μg or 10 μg, assuming that 24 μl of solution was delivered each day for one week.
Recombinant human GH was administered for one week by twice daily SC injections of 10 μg in 100 μl volume.
Body weights were measured daily in the morning. At the end of the week of dosing the animals were anesthetized via CO2 and exsanguinated via cardiac puncture. The remaining blood was allowed to clot and serum was separated and stored for further analysis.
as §2
Serum chemistries were measured on an automated Chem I analyzer. Serum insulin concentration was measured using an RIA Kit supplied by Linco, Inc. To measure the IGF-I concentrations the serum was extracted using acid ethanol and the supernatant diluted to neutrality and assayed for IGF-I by RIA.
Tibia were sectioned longitudinally, stained with Toluene Blue, and mounted on microscope slides. The tibial epiphyseal plate width was measured using an ocular micrometer attached to a microscope.
Data were analyzed statistically by analysis of variance using one factor and two factor ANOVA.

[5] = serum at sacrifice, 8 days, Means ± SEM

CC[C@H](C)[C@@H]1NC(=O)[C@H](Cc2ccc(O)cc2)NC(=O)CNC(=O)[C@H](CCC(N)=O)NC(=O)[C@H](CC(=O)O)NC(=O)[C@H](Cc2c[nH]cn2)NC(=O)[C@H](CCCNC(=N)N)NC(=O)[C@H](CC(=O)O)NC(=O)[C@H](Cc2c[nH]c3ccccc23)NC(=O)[C@@H](NC(=O)[C@@H](NC(=O)[C@H](CCC(=O)O)NC(=O)[C@H](Cc2c[nH]c3ccccc23)NC(=O)[C@H](C)NC(=O)[C@@H](N)C(C)C)C(C)C)CSSC[C@@H](C(=O)N[C@H](C(=O)N[C@H](C(=O)N[C@@H](CC(=O)O)C(=O)N[C@@H](CO)C(=O)O)[C@@H](C)O)[C@@H](C)O)NC1=O [BP3-4D3.11] (H-VAWEVCWDRHDQGYICTTDS-OH; disulfide 6-16; N-terminus and C-terminus assumed)
IC50 (IGFBP-3 [1]): < 10 µM | IC50 (IGFBP-3 [2]): 1 µM

CC(C)C[C@@H]1NC(=O)[C@H](Cc2c[nH]c3ccccc23)NC(=O)[C@H](CCC(N)=O)NC(=O)[C@H](CC(C)C)NC(=O)[C@@H]2CCCN2C(=O)CNC(=O)[C@H](C)NC(=O)[C@H](CCCNC(=N)N)NC(=O)[C@@H](NC(=O)[C@@H](NC(=O)[C@H](CCCNC(=N)N)NC(=O)[C@H](C)NC(=O)[C@@H](N)CCC(=O)O)C(C)C)CSSC[C@@H](C(=O)N[C@@H](CCC(=O)O)C(=O)N[C@@H](CCCCN)C(=O)N[C@@H](Cc2ccc(O)cc2)C(=O)N[C@@H](Cc2ccccc2)C(N)=O)NC1=O [bp1-20] (H-EARVCRAGPLQWLCEKYF-NH2; disulfide 5-14)
IGF-I Inhibition IC50 (114)/IC50 (mut) (IGFBP-1 [3]): 2.6 | IGF-I Inhibition IC50 (116)/IC50 (mut) (IGFBP-1 [3]): 12

CC(C)C[C@@H]1NC(=O)[C@H](Cc2c[nH]c3ccccc23)NC(=O)[C@H](CCC(N)=O)NC(=O)[C@H](CC(C)C)NC(=O)[C@@H]2CCCN2C(=O)CNC(=O)[C@H](C)NC(=O)[C@H](CCCNC(=N)N)NC(=O)[C@@H](NC(=O)CNC(=O)[C@@H](NC(=O)[C@H](CCC(=O)O)NC(=O)[C@@H](N)CO)C(C)C)CSSC[C@@H](C(=O)N[C@@H](CCC(=O)O)C(=O)N[C@@H](CCCCN)C(=O)N[C@@H](Cc2ccc(O)cc2)C(=O)N[C@@H](Cc2ccccc2)C(=O)N[C@@H](CO)C(=O)N[C@H](C(=O)N[C@@H](Cc2ccc(O)cc2)C(N)=O)[C@@H](C)O)NC1=O [bp1-21A] (H-SEVGCRAGPLQWLCEKYFSTY-NH2; disulfide 5-14)
affinity improvement compared with bp1-14 (18-mer) (IGFBP-1 [3]; IGFBP-1): 3 fold | IGF-I Inhibition IC50 (114)/IC50 (mut) (IGFBP-1 [3]): 3.2 | IGF-I Inhibition IC50 (116)/IC50 (mut) (IGFBP-1 [3]): 15

CRAGPLQWLCE [bp1-04]
IGF-I Inhibition IC50 (mut)/IC50 (wt) (IGFBP-1 [4]): >1000

CRAGPLQWLCEK [bp1-17]
IGF-I Inhibition IC50 (mut)/IC50 (wt) (IGFBP-1 [4]): >1000

CRAGPLQWLCEKYFSTY-nh2 (CRAGPLQWLCEKYFSTY-NH2; disulfide 1-10) [bp1-21B]
affinity improvement compared with bp1-16 (IGFBP-1 [3]; IGFBP-1): ~3 fold

hGH: Recombinant human GH (NUTROPIN brand from Genentech, Inc.)
epiphyseal plate widths (dwarf rats; 8 days): significantly (p<0.05) increased | body weight gain (dwarf rats; Day 5, hGH 50 μg/d, IGF mutant 120 μg/day): 12.4 ± 0.9 g | AST (dwarf rats; [5]): 123 ± 13 U/l | BUN (dwarf rats; [5]): 15.6 ± 0.7 mg/dL | CK (dwarf rats; [5]): 184 ± 29 u/l | Creatinine (dwarf rats; [5]): 0.33 ± 0.02 mg/dL | Glucose (dwarf rats; [5]): 192 ± 10 mg/dL | Insulin (dwarf rats; [5]): 1.48 ± 0.29 ng/mL | body weight gain (hypophysectomized rats; IGF agonist 50 μg/day SC minipump, hGH 20 μg/day SC, or both): significant increase in body weight | absolute thymus weight (hypophysectomized rats; IGF agonist 50 μg/day, hGH 20 μg/day, or both): almost equal | absolute and relative heart weight (hypophysectomized rats; IGF agonist 10 and 50 μg, hGH 20 μg/day, or combination): slightly increased absolute heart weight and caused a fall in relative heart weight | absolute spleen weight (hypophysectomized rats; IGF mutant 10 and 50 μg/day, hGH 20 μg/day, or hGH plus 50 μg/day): greater than that to the IGF agonist | epiphyseal plate width (hypophysectomized rats; rhGH 20 μg/day): around 400 μm
